Paper PMC10609720, “Antiviral Activity of Flavonoids from Geopropolis of the Brazilian Jandaira Bee against Zika and Dengue Viruses” (Pharmaceutics, 2023)

Key:
Vero cells = assay: Cell viability assay (MTT) in Vero cells; assay type: cell-based; conditions: Vero cells
Experimental: (§1) The cell toxicity induced by the three tested fractions and the isolated flavonoids was evaluated in a growing Vero cell. […] To this end, Vero cells (1 × 10^4 cells/well) were plated in 96-well microplates 24 h beforehand. […] After a period of 120 h at 37 °C in a 5% CO2 atmosphere, the culture medium was removed from the plate, and 50 μL of recently prepared MTT solution (1 mg/mL) was then added. The 96-well microplate was placed in a CO2 incubator for 4 h at 37 °C. After this period, the MTT solution was replaced by DMSO. Then, the optical density at 540 nm (OD540) was measured using a BioTekTM ELx800TM 96-well plate reader (BioTek Instruments Inc., Winooski, VT. The OD540 subtraction of treated cells compared to untreated cells was calculated. […] The CC20 value was empirically defined as the maximum safe limit to perform the antiviral screening. Results were expressed as mean ± SD of three independent replicates. The differences in viral titer of treated and untreated infected cells were analyzed according to ANOVA followed by the Dunnett test using GraphPad Prism software v.5.01 (GraphPad Software, La Jolla, CA, USA). The drug concentration that reduced viral titer by 50% (IC50) was defined using the same software. […] The CC50 and CC20 values were also calculated using GraphPad Prism software in a non-linear regression interpretation. The selective index (SI) was based on the ratio math of CC50 and IC50 values. Data were reported as the mean ± standard deviation (SD) of three independent experiments. Significance was only considered when p < 0.05.

ZIKV = assay: Post-treatment antiviral assay, viral titration by TCID50, ZIKV-infected Vero cells; assay type: cell-based; conditions: for % ZIKV Inhibition / IC50: Vero cells; for % ZIKV Inhibition: MOI 0.1, treated with CC20 of each sample for 120 h, TCID50; for IC50 / SI: ZIKV; for IC50: MOI 0.1, concentration to reduce viral titer by 50%; for SI: ratio of CC50 and IC50; for ZIKV-induced cytopathic effect in Vero cell monolayers: treatment at CC20, microscopy, Figure 4B,C
Experimental: (§2) One day prior to infection with the ZIKV or DENV strain, Vero cells were seeded in 24-well plates (5 × 10^4 cells/well). The infection was performed at the multiplicity of infection (MOI) of 0.1 for 2 h at 37 °C in 5% CO2. After virus internalization, the inoculum was removed, and the cells were washed using the growth medium. […] 6-MMPr, used as positive control drug, was also included as a drug treatment in some wells [33]. Controls of mock (non-infected) and infected non-treated cells were included. At 120 h post-infection (hpi), the cytopathic effect was evaluated using an inverted microscope (AE2000 binocular microscope, Motic, Hong Kong), and cells were photographed with a smartphone. The cell supernatant was harvested at 120 hpi and stored at −80 °C for posterior virus titration, using the TCID50 method.
(§3) The TCID50 method was used here to perform viral titration. The titer values were expressed as log10 TCID50/mL. One day prior to titration, Vero cells were seeded in a 96-well plate (1 × 10^4 cells/well) at 37 °C in a 5% CO2 incubator. The cell supernatants that were previous stored (see item 2.5—cytopathic effect assay) were serially diluted 10-fold in DMEM and submitted to the cell monolayer. After incubation for 5 days at 37 °C and 5% CO2, the cytopathic effect was observed through an inverted optical microscope, and the reduction in viral titer was defined according to Reed–Muench parameters.
(§4) The differences in viral titer of treated and untreated infected cells were analyzed according to ANOVA followed by the Dunnett test using GraphPad Prism software v.5.01 (GraphPad Software, La Jolla, CA, USA). The drug concentration that reduced viral titer by 50% (IC50) was defined using the same software. This represents the compound concentration required to reduce ZIKV or DENV titer by 50% when compared with the non-treated cells. The CC50 and CC20 values were also calculated using GraphPad Prism software in a non-linear regression interpretation. The selective index (SI) was based on the ratio math of CC50 and IC50 values. Data were reported as the mean ± standard deviation (SD) of three independent experiments. Significance was only considered when p < 0.05.

DENV-2 = assay: Post-treatment antiviral assay, viral titration by TCID50, DENV-infected Vero cells; assay type: cell-based; conditions: for IC50 / SI: DENV; for IC50 / % DENV-2 Inhibition: Vero cells; for IC50: MOI 0.1, concentration to reduce viral titer by 50%; for SI: ratio of CC50 and IC50; for % DENV-2 Inhibition: MOI 0.1, treated with CC20 of each sample for 120 h, TCID50
Experimental: as §2, §3, §4

[1] = Cell viability assay (MTT) in Vero cells; assay type: cell-based; conditions: African green monkey
Experimental: as §1

Hela cells = test system: Hela cells; parameters: method as in PMID 29354400; conditions: at the tested concentrations, ref [59]; cited from earlier work
[2] = Table 3, non-toxic concentration used in the antiviral assays

SMILES	CC50 (Vero cells; Table 2, MTT method, 120 h)	CC50 (Vero cells; Table 3)	CC20 (Vero cells; [2])	% ZIKV Inhibition (ZIKV)	IC50 (ZIKV)	SI (ZIKV)	IC50 (DENV-2)	SI (DENV-2)	% DENV-2 Inhibition (DENV-2)	CC50 at 120 h [1]	IC50 (ZIKV; Zika virus)	ZIKV-induced cytopathic effect in Vero cell monolayers (ZIKV)	IC50 (DENV-2; Dengue virus, DENV2)	DENV-induced cytopathic effect in Vero cell monolayers (DENV-2; treatment at CC20, microscopy, Figure 5B,C)	cell viability (Hela cells)	CC20 (Vero cells; Table 2, MTT method, 120 h)
CSc1ncnc2c1ncn2[C@@H]1O[C@H](CO)[C@@H](O)[C@H]1O [6-MMPr, 6-methylmercaptopurine riboside, reference compound]	291 µM	291 µM	60.5 μM/mL	51.5%	24.5 µM	11.9	18.2 µM	16.0	48.3%	–	–	–	–	–	–	–
COc1cc(O)c2c(c1)O[C@H](c1ccc(O)cc1)CC2=O [7-O-methyl naringenin]	–	–	–	30.3%	–	18.7	–	7.7	51.6%	240 µM	12.8 µM	prevented morphological modifications	30.9 µM	prevented morphological modifications	100%	–
O=C1C[C@@H](c2ccc(O)cc2)Oc2cc(O)cc(O)c21 [Naringenin]	–	–	86.43 μM/mL	34.7%	–	–	–	–	61.5%	242 µM	58.9 µM	prevented morphological modifications	42.9 µM	–	–	86.43 µM/mL
